biological target: T1, Neuropeptide Y receptor type 5 (Mus musculus, UniProt O70342); assay: Inhibitory concentration against Neuropeptide Y receptor type 5 in mouse; Inactive
T1 sequence (O70342 whole entry): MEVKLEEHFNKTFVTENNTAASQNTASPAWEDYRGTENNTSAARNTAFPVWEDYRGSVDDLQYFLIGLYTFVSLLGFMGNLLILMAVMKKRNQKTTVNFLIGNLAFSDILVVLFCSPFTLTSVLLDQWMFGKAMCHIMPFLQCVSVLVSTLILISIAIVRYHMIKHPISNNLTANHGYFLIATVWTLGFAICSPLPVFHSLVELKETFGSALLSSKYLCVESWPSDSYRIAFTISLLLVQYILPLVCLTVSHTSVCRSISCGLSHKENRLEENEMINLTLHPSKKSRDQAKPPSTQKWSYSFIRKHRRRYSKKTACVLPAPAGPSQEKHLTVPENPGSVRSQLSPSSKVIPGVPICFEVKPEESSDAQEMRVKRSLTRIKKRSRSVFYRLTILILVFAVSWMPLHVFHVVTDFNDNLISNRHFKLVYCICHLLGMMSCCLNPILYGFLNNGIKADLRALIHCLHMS

| Structure (SMILES) | IC50 |
| --- | --- |
| O=C(c1cnc(Nc2cc(Cl)cc(Cl)c2)s1)c1ccccc1F | Not Active |

biological target: T1, Neuropeptide Y receptor type 5; assay: Inhibitory concentration against Neuropeptide Y receptor type 5 in mouse; type: organism-based

| Structure (SMILES) | IC50 [nM] |
| --- | --- |
| O=C(c1cnc(Nc2ccc(Cl)cc2)s1)c1ccccc1F | 1670 |
| Cc1cc(C(=O)c2cnc(Nc3cccc(C#N)c3)s2)c(C)s1 | 14 |
| O=C(c1cnc(Nc2cccc(C(F)(F)F)c2)s1)c1ccccc1C(F)(F)F | 138 |
| COc1ccc(C(=O)c2cnc(Nc3cccc(C#N)c3)s2)cc1 | 2230 |
| Cc1ccccc1C(=O)c1cnc(Nc2cccc(C#N)c2)s1 | 4.2 |
| CCc1ccccc1C(=O)c1cnc(Nc2cccc(C#N)c2)s1 | 2.8 |
| Cc1cc(C(=O)c2cnc(Nc3cccc(C(F)(F)F)c3)s2)c(C)s1 | 395 |
| Cc1ccccc1C(=O)c1cnc(Nc2cccc(C(F)(F)F)c2)s1 | 63 |
| N#Cc1cccc(Nc2ncc(C(=O)c3ccccc3F)s2)c1 | 19 |
| CCc1ccccc1C(=O)c1cnc(Nc2cccc(C(F)(F)F)c2)s1 | 32 |
| O=C(c1cccc(F)c1)c1cnc(Nc2cccc(C(F)(F)F)c2)s1 | 885 |
| N#Cc1cccc(Nc2ncc(C(=O)c3ccccc3C(F)(F)F)s2)c1 | 20 |
| COc1cccc(Nc2ncc(C(=O)c3ccccc3F)s2)c1 | 1000 |

Reference: ChEMBL document CHEMBL1142038, “Novel and potent NPY5 receptor antagonists derived from virtual screening and iterative parallel chemistry design” (Bioorg Med Chem Lett, 2005)
